In patent US20250308633A1, “Methods Regarding the Treatment or Prevention of Diseases Including Cancer by Modulating Transcriptional Networks Controlling MET and EMT” (Yale University, priority 2024, published 2025):

Biological target: T1, ESRRA (Homo sapiens, UniProt P11474)
T1 construct: endogenous in cells; host or cells: HCC38 CD44hi cells (FACS-sorted from bulk HCC38, 2D culture)
T1 sequence (P11474 1-423): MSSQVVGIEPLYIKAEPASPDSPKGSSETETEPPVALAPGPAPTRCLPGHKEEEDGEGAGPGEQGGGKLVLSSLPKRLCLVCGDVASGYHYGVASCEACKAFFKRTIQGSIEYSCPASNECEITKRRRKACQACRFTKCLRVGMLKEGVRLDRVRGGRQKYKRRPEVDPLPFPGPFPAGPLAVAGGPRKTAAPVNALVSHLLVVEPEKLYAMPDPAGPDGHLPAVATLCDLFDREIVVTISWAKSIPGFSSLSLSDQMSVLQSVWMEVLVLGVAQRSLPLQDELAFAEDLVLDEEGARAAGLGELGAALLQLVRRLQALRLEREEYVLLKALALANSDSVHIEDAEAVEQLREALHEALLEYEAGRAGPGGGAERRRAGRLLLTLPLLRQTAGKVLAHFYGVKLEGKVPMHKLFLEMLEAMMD
Assay: Western blot of CDH1 expression after ESRRA inhibitor (C14) treatment of HCC38 CD44hi cells
Type: cell-based
Conditions: 2D cultured HCC38 CD44hi cells; 5 and 10 M; 48 hours post-treatment; vs DMSO vehicle; n=3 biological replicates; p≤0.05
Procedure: In parallel, HCC38 CD44^hi cells were also treated with an ESRRA inhibitor ((2-Aminophenyl)(1-(3-isopropylphenyl)-1H-1,2,3-triazol-4-yl)methanone) (BLD Pharm, China, Cat no. BD01201330) (referred to as Compound 14 (C14) herein) at 5 and 10 M concentrations. Vehicle controls were treated with DMSO. Cells were harvested 48 hours post-treatment and processed for protein extraction which were studied for changes in ESRRA and CDH1 expression using western blot (n=3 biological replicates).
Western Blotting: Proteins were extracted from control and treated cells using ice cold modified RIPA buffer (50 mM Tris-HCl pH 7.5, 150 mM NaCl, 1 mM EDTA, 1 mM EGTA, 1% Triton X-100, 0.1% SDS with supplemented with 1× protease and phosphatase inhibitor cocktails). The lysates were sonicated using a QSONICA Q55 probe sonicator at […] for 20 seconds in an ice bath. This whole cell lysate was centrifuged at 14,000×g for 10 min at 4° C. and stored in −80° C. until further use. Proteins were quantified using the Pierce™ BCA Protein Assay Kit (Cat. 23227, Thermo Fisher Scientific, USA) as per the manufacturer's instructions. […]
Next, membranes were incubated with appropriate HRP-conjugated secondary antibodies. […] The signal intensity of the bands in western blots was quantified using Image Studio Lite version 5.2 (LI-COR Biotechnology, USA).

CC(C)c1cccc(-n2cc(C(=O)c3ccccc3N)nn2)c1 [ESRRA antagonist, (2-Aminophenyl)(1-(3-isopropylphenyl)-1H-1,2,3-triazol-4-yl)methanone]
CDH1 expression (western blot, relative fold-change): significant increase
